Test results as given in ChEMBL document CHEMBL5579875, “Discovery of VU6008677: A Structurally Distinct Tricyclic M4 Positive Allosteric Modulator with Improved CYP450 Profile” (ACS Med Chem Lett, 2024).

Tests used:
[1] = Plasma protein binding in human assessed as unbound fraction at 5 uM incubated for 6 hrs by LC-MS/MS analysis; format: ADME, cell-free
[2] = Plasma protein binding in rat assessed as unbound fraction at 5 uM incubated for 6 hrs by LC-MS/MS analysis; format: ADME, cell-free
[3] = Unbound fraction in rat brain homogenate at 1 uM incubated for 6 hrs by LC-MS/MS analysis; format: ADME, tissue-based

Fu [1]	Fu [2]	Fu [3]	Compound
0.004	0.01		Cc1nc2sc3c(NC4CC4)ncnc3c2c(C)c1Cl.Cl
0.01	0.01	0.005	Cc1c(Cl)cnc2sc3c(NC4CC(c5ccncc5)C4)ncnc3c12 (stereo not given)
